From publication PMC11432763, “Machine Learning-Driven Discovery and Evaluation of Antimicrobial Peptides from Crassostrea gigas Mucus Proteome” (Marine Drugs, 2024)
Where a SMILES comes first, the peptide text is derived from it.

System: HEK293T cells
Experiment: Cytotoxicity assay (CCK-8)
Type: cell-based
Settings: 24 h; for Cytotoxicity at 50 μM (in words): CCK-8, n = 5, compared with 0 μM; for Cytotoxicity within the concentration range detected (in words): peptide 1-50 μM, CCK-8, OD450, n = 5
Protocol: HEK293T cells were cultured in DMEM (10% FBS, 1% penicillin–streptomycin solution) in a 37 °C, 5% CO2 cell culture incubator until reaching the logarithmic growth phasein. As previously described, cells were seeded into a 96-well plate at 100 μL per well and pre-incubated for 48 h. After removing the medium, 10 μL of antimicrobial peptide solutions (1, 2, 5, 10, 20, and 50 μM) were added to each well with five replicate wells per concentration. The HEK293T cells cultured with DMEM (0 μM peptide) constituted the untreated group and plates with no cells were as blank group. Plates were then cultured for 24 h. Subsequently, 10 μL of CCK-8 solution was added to each well and incubated for 3 h under the same conditions using the Cell Counting Kit-8 (CCK-8, K1018, APE×BIO, Technology LLC, Houston, TX, USA). Absorbance at 450 nm was measured using a microplate reader. Cell viability was calculated using the following formula: Cell viability (%) = [Treated group OD (450) − Blank group OD (450)]/[Untreated group OD (450) − Blank group OD (450)] × 100%.

Row | Molecule | Cytotoxicity at 50 μM (in words) | Cytotoxicity within the concentration range detected (in words) | further results
1 | CC[C@H](C)[C@H](NC(=O)[C@H](CCCCN)NC(=O)[C@H](Cc1ccc(O)cc1)NC(=O)[C@H](CCCCN)NC(=O)[C@H](CCCCN)NC(=O)[C@H](Cc1ccccc1)NC(=O)[C@H](CCCNC(=N)N)NC(=O)[C@H](CC(N)=O)NC(=O)[C@H](CCSC)NC(=O)[C@@H](NC(=O)[C@H](CC(C)C)NC(=O)[C@H](Cc1ccc(O)cc1)NC(=O)[C@@H](NC(=O)[C@H](C)NC(=O)[C@H](CCCNC(=N)N)NC(=O)[C@H](CCSC)NC(=O)[C@H](CCCCN)NC(=O)[C@H](CCCCN)NC(=O)[C@H](C)NC(=O)[C@H](CCCNC(=N)N)NC(=O)[C@H](CCCNC(=N)N)NC(=O)[C@@H](N)CCCNC(=N)N)[C@@H](C)CC)[C@@H](C)CC)C(=O)O [P4] (H-RRRAKKMRAIYLIMNRFKKYKI-OH; N-terminus and C-terminus assumed) | significant cell death | – | –
2 | CC(C)C[C@H](NC(=O)[C@@H](N)CC(C)C)C(=O)N[C@@H](CCCNC(=N)N)C(=O)N[C@@H](CCCNC(=N)N)C(=O)N[C@@H](CCCCN)C(=O)N[C@@H](Cc1ccccc1)C(=O)N[C@@H](Cc1ccccc1)C(=O)N[C@@H](Cc1ccccc1)C(=O)O [S2] (H-LLRRKFFF-OH; N-terminus and C-terminus assumed) | – | – | Cytotoxicity at 10 μM (in words) (10 μM, CCK-8, n = 5): significant cytotoxic effects; Cell viability (at 10, 20 and 50 μM, CCK-8, n = 5): ≤ 75%
3 | FAKLLLRLPALR [P1, peptide … derived from Crassostrea gigas mucous proteins, selected by machine learning] | – | no cytotoxicity | –
4 | KVWQRVKVKML [P3, peptide … derived from Crassostrea gigas mucous proteins, selected by machine learning] | – | no cytotoxicity | –
5 | LLFRRRLL [S1] | significant cell death | – | –
6 | WKQIKFYVYNRILKKRK [P2, peptide … derived from Crassostrea gigas mucous proteins, selected by machine learning] | significant cell death | – | –
